In patent US20140162980A1, “NOVEL MICROBIOCIDAL DIOXIME ETHER DERIVATIVES” (SYNGENTA CROP PROTECTION LLC, priority 2010, published 2014):

Columns and labels:
[1] = tested on: Botryotinia fuckeliana (Botrytis cinerea); assay: Botryotinia fuckeliana (Botrytis cinerea) / liquid culture (gray mould); format: cell-based; settings: Vogels broth, 24° C., 3-4 days after application, read-out: control of Botryotinia fuckeliana (inhibition of growth, photometrically)
Experimental: Botryotinia Fuckeliana (Botrytis cinerea)/Liquid Culture (Gray Mould): Conidia of the fungus from cryogenic storage were directly mixed into nutrient broth (Vogels broth). After placing a DMSO solution of test compound into a 96-well microtiter plate at an application rate 200 ppm, the nutrient broth containing the fungal spores was added. The test plates were incubated at 24° C. and the inhibition of growth was determined photometrically 3-4 days after application.

[2] = tested on: Pyrenophora teres; assay: Pyrenophora teres / barley / leaf disc preventative (net blotch); format: in vivo; settings: foliar, barley leaf segments cv Hasso, inoculated two days after application, assessed 5-7 days after application, read-out: control of Pyrenophora teres (disease control compared to untreated)
Experimental: Pyrenophora Teres/Barley/Leaf Disc Preventative (Net Blotch): Barley leaf segments cv Hasso are placed on agar in a 24-well plate and sprayed with formulated test compound diluted in water at an application rate of 200 ppm. The leaf segments are inoculated with a spore suspension of the fungus two days after application of the test solution. The inoculated leaf segments are incubated at 20° C. and 65% relative humidity under a light regime of 12/12 h (light/dark) in a climate cabinet and the activity of a compound is assessed as disease control compared to untreated when an appropriate level of disease damage appears in untreated check leaf segments (5-7 days after application).

[3] = tested on: Phaeosphaeria nodorum (Septoria nodorum); assay: Phaeosphaeria nodorum (Septoria nodorum) / wheat / leaf disc preventative (glume blotch); format: in vivo; settings: Parastagonospora nodorum, foliar, wheat leaf segments cv Kanzler, inoculated 2 days after application, assessed 5-7 days after application, read-out: control of Phaeosphaeria nodorum (percent disease control compared to untreated)
Experimental: Phaeosphaeria Nodorum (Septoria nodorum)/Wheat/Leaf Disc Preventative (Glume Blotch): Wheat leaf segments cv Kanzler were placed on agar in a 24-well plate and sprayed with formulated test compound diluted in water at an application rate of 200 ppm. The leaf disks are inoculated with a spore suspension of the fungus 2 days after application. The inoculated test leaf disks are incubated at 20° C. and 75% relative humidity under a light regime of 12/12 h (light/dark) in a climate cabinet and the activity of a compound is assessed as percent disease control compared to untreated when an appropriate level of disease damage appears in untreated check leaf disks (5-7 days after application).

[4] = tested on: Blumeria graminis f. sp. tritici (Erysiphe graminis f. sp. tritici); assay: Blumeria graminis f. sp. tritici / wheat / leaf disc preventative (powdery mildew on wheat); format: in vivo; settings: foliar, wheat leaf segments cv. Kanzler, inoculated 1 day after application, assessed 6-8 days after application, read-out: control of Blumeria graminis (percent disease control compared to untreated)
Experimental: Blumeria Graminis f. Sp. Tritici (Erysiphe Graminis f. Sp. Tritici)/Wheat/Leaf Disc Preventative (Powdery Mildew on Wheat):
Wheat leaf segments cv. Kanzler were placed on agar in a 24-well plate and sprayed with the formulated test compound diluted in water at an application rate of 200 ppm. The leaf disks were inoculated by shaking powdery mildew infected plants above the test plates 1 day after application. The inoculated leaf disks were incubated at 20° C. and 60% relative humidity under a light regime of 24 h darkness followed by 12 h/12 h (dark/light) in a climate chamber and the activity of a compound was assessed as percent disease control compared to untreated when an appropriate level of disease damage appears on untreated check leaf segments (6-8 days after application). The following compounds gave at least 80% control of Blumeria graminis: […]

[5] = tested on: Puccinia recondita f. sp. tritici; assay: Puccinia recondita f. sp. tritici / wheat / leaf disc preventative (brown rust); format: in vivo; settings: foliar, wheat leaf segments cv Kanzler, inoculated 1 day after application, assessed 7-9 days after application, read-out: control of Puccinia recondita f. sp. tritici, preventative (percent disease control compared to untreated)
Experimental: Puccinia Recondita f. Sp. Tritici/Wheat/Leaf Disc Preventative (Brown Rust): Wheat leaf segments cultivated variety (cv) Kanzler were placed on agar in 24-well plates and sprayed with formulated test compound diluted in water at an application rate of 200 ppm. The leaf disks were inoculated with a spore suspension of the fungus 1 day after application. The inoculated leaf segments were incubated at 19° C. and 75% relative humidity under a light regime of 12/12 h (light/dark) in a climate cabinet and the activity of a compound was assessed as percent disease control compared to untreated when an appropriate level of disease damage appears in untreated check leaf segments (7-9 days after application).

[6] = tested on: Pythium ultimum; assay: Pythium ultimum / liquid culture (seedling damping off); format: cell-based; settings: Globisporangium ultimum, PDB potato dextrose broth, 24° C., 2-3 days after application, read-out: control of Pythium ultimum (inhibition of growth, photometrically)
Experimental: Pythium Ultimum/Liquid Culture (Seedling Damping Off): Mycelia fragments and oospores of a newly grown liquid culture of the fungus were directly mixed into nutrient broth (PDB potato dextrose broth). After placing a DMSO solution of test compound into a 96 well microtiter plate at an application rate 200 ppm, the nutrient broth containing the fungal mycelia/spore mixture was added. The test plates were incubated at 24° C. and the inhibition of growth was determined photometrically 2-3 days after application.

[7] = tested on: Puccinia recondita f. sp. tritici; assay: Puccinia recondita f. sp. tritici / wheat / leaf disc curative (brown rust); format: in vivo; settings: foliar, 200 ppm applied 1 day after inoculation, wheat leaf segments cv Kanzler, assessed 6-8 days after application, read-out: control of Puccinia recondita f. sp. tritici, curative (percent disease control compared to untreated)
Experimental: Puccinia Recondita f. Sp. Tritici/Wheat/Leaf Disc Curative (Brown Rust): Wheat leaf segments cv Kanzler were placed on agar in 24-well plates. The leaf segments were inoculated with a spore suspension of the fungus. The plates were stored in darkness at 19° C. and 75% relative humidity. The formulated test compound diluted in water was applied at an application rate of 200 ppm 1 day after inoculation.

[8] = tested on: Phytophthora infestans; assay: whole plant or invertebrate; format: in vivo; settings: in Solanum lycopersicum, foliar, read-out: control of Phytophthora infestans (percent disease control compared to untreated)
[9] = tested on: Thanatephorus cucumeris (Rhizoctonia solani); assay: Thanatephorus cucumeris (Rhizoctonia solani) / liquid culture (foot rot, damping-off); format: cell-based; settings: PDB potato dextrose broth, 24° C., 3-4 days after application, read-out: control of Thanatephorus cucumeris (inhibition of growth, photometrically)
Experimental: Thanatephorus Cucumeris (Rhizoctonia solani)/Liquid Culture (Foot Rot, Damping-Off): Mycelia fragments of a newly grown liquid culture of the fungus are directly mixed into nutrient broth (PDB potato dextrose broth). After placing a DMSO solution of the test compounds into a 96-well microtiter plate at an application rate 200 ppm, the nutrient broth containing the fungal material was added. The test plates were incubated at 24° C. and the inhibition of growth was determined photometrically 3-4 days after application.

[10] = tested on: Magnaporthe grisea (Pyricularia oryzae); assay: whole plant or invertebrate; format: in vivo; settings: foliar, read-out: control of Magnaporthe grisea (percent disease control compared to untreated)

Cc1ccc2c(n1)/C(=N/OCC(C)(C)CO/N=C1\CCc3ccc(Cl)nc31)CCC2 [P.01]
≥ 80%: inhibition at 200 ppm [1]

Cc1ccc2c(n1)/C(=N/OCC1(CO/N=C3\CCCc4ccc(C)nc43)CC1)CCC2 [P.03]
≥ 80%: pest or weed control at 200 ppm [2] | pest or weed control at 200 ppm [3] | inhibition at 200 ppm [1] | pest or weed control at 200 ppm [4] | pest or weed control at 200 ppm [5] | inhibition at 200 ppm [6] | pest or weed control at 200 ppm [7]

Cc1ccc2c(n1)/C(=N/OCC(CO/N=C1\CCCc3ccc(C)nc31)c1ccccc1)CCC2 (centres unmarked) [P.04]
≥ 80%: pest or weed control at 200 ppm [2] | pest or weed control at 200 ppm [3] | inhibition at 200 ppm [1] | pest or weed control at 200 ppm [4] | pest or weed control at 200 ppm [5] | pest or weed control at 200 ppm [8] | pest or weed control at 200 ppm [7]

Cc1ccc2c(n1)/C(=N/OCC(C)(C)CO/N=C1\CCc3ccc(C)nc31)CCC2 [P.08]
≥ 80%: inhibition at 200 ppm [1] | pest or weed control at 200 ppm [4]

Cc1ccc2c(n1)/C(=N/OCC(O)CO/N=C1\CCCc3ccc(C)nc31)CCC2 (centres unmarked) [P.11]
≥ 80%: pest or weed control at 200 ppm [2] | pest or weed control at 200 ppm [3] | pest or weed control at 200 ppm [5] | pest or weed control at 200 ppm [7]

Cc1cc(Cl)c2c(n1)/C(=N/OCC1(CO/N=C3\CCCc4c(Cl)cc(C)nc43)CC1)CCC2 [P.12]
≥ 80%: inhibition at 200 ppm [1] | inhibition at 200 ppm [9]

COc1ccc2c(n1)/C(=N/OCC1(CO/N=C3\CCCc4ccc(OC)nc43)CC1)CCC2 [P.13]
≥ 80%: pest or weed control at 200 ppm [2] | pest or weed control at 200 ppm [3] | inhibition at 200 ppm [1] | pest or weed control at 200 ppm [4] | pest or weed control at 200 ppm [5] | inhibition at 200 ppm [9] | pest or weed control at 200 ppm [7]

Cc1ccc2c(n1)/C(=N/OCC(F)CO/N=C1\CCCc3ccc(C)nc31)CCC2 (centres unmarked) [P.14]
≥ 80%: pest or weed control at 200 ppm [3] | inhibition at 200 ppm [1] | pest or weed control at 200 ppm [4] | pest or weed control at 200 ppm [5] | inhibition at 200 ppm [6] | pest or weed control at 200 ppm [7]

Cc1ccc2c(n1)/C(=N/OCC(C)(C)CO/N=C1\CC(C)Cc3ccc(-c4ccc(Cl)cc4)nc31)CCC2 (centres unmarked) [P.22]
≥ 80%: pest or weed control at 200 ppm [3] | inhibition at 200 ppm [1]

Cc1ccc2c(n1)/C(=N/OCC(Cl)CO/N=C1\CCCc3ccc(C)nc31)CCC2 (centres unmarked) [P.24]
≥ 80%: pest or weed control at 200 ppm [2] | pest or weed control at 200 ppm [3] | inhibition at 200 ppm [1] | pest or weed control at 200 ppm [4] | pest or weed control at 200 ppm [5] | inhibition at 200 ppm [6] | pest or weed control at 200 ppm [7]

Cc1c2c(nc3ccccc13)/C(=N/OCCCO/N=C1\CCCc3c1nc1ccccc1c3C)CCC2 [P.25]
≥ 80%: pest or weed control at 200 ppm [2] | pest or weed control at 200 ppm [3] | inhibition at 200 ppm [1] | pest or weed control at 200 ppm [4] | pest or weed control at 200 ppm [5]

Cc1c2c(nc3ccccc13)/C(=N/OCC1(CO/N=C3\CCCc4c3nc3ccccc3c4C)CC1)CCC2 [P.27]
≥ 80%: pest or weed control at 200 ppm [2] | pest or weed control at 200 ppm [3] | inhibition at 200 ppm [1] | pest or weed control at 200 ppm [4]

Cc1c2c(nc3ccccc13)/C(=N/OCC(C)(C)CO/N=C1\CCCc3c1nc1ccccc1c3C)CCC2 [P.28]
≥ 80%: pest or weed control at 200 ppm [2] | pest or weed control at 200 ppm [3] | inhibition at 200 ppm [1] | pest or weed control at 200 ppm [4]

Cc1cc(CF)nc2c1CCC/C2=N\OCC(C)(C)CO/N=C1\CCCc2c(C)cc(CF)nc21 [P.34]
≥ 80%: pest or weed control at 200 ppm [2] | pest or weed control at 200 ppm [3] | inhibition at 200 ppm [1] | pest or weed control at 200 ppm [7] | pest or weed control at 200 ppm [10]

FCc1ccnc2c1CCC/C2=N\OCCCO/N=C1\CCCc2c(CF)ccnc21 [P.36]
≥ 80%: inhibition at 200 ppm [1]

Cc1ccc2c(n1)/C(=N/OCC(C)(C)CO/N=C1\CCCc3c(N4CCCC4)cc(C)nc31)CCC2 [P.41]
≥ 80%: pest or weed control at 200 ppm [2] | pest or weed control at 200 ppm [3] | inhibition at 200 ppm [1] | pest or weed control at 200 ppm [4] | inhibition at 200 ppm [9]

COCc1cc(C)c2c(n1)/C(=N/OCC(C)(C)CO/N=C1\CCCc3ccc(C)nc31)CCC2 [P.42]
≥ 80%: pest or weed control at 200 ppm [2] | pest or weed control at 200 ppm [3] | inhibition at 200 ppm [1] | pest or weed control at 200 ppm [4] | pest or weed control at 200 ppm [5] | inhibition at 200 ppm [6] | pest or weed control at 200 ppm [7] | pest or weed control at 200 ppm [10]

CSc1cc(C)nc2c1CCC/C2=N\OCCCO/N=C1\CCCc2c(SC)cc(C)nc21 [P.43]
≥ 80%: inhibition at 200 ppm [1]

Cc1cc(C(F)F)c2c(n1)/C(=N/OCC1(CO/N=C3\CCCc4c(C(F)F)cc(C)nc43)CC1)CCC2 [P.45]
≥ 80%: pest or weed control at 200 ppm [2] | pest or weed control at 200 ppm [3] | inhibition at 200 ppm [1] | pest or weed control at 200 ppm [4] | pest or weed control at 200 ppm [5] | pest or weed control at 200 ppm [7] | pest or weed control at 200 ppm [10]

Cc1ccc2c(n1)/C(=N/OCCCO/N=C1\CCCc3ccc(C(F)(F)F)nc31)CCC2 [P.47]
≥ 80%: pest or weed control at 200 ppm [2] | pest or weed control at 200 ppm [3] | inhibition at 200 ppm [1] | pest or weed control at 200 ppm [4] | pest or weed control at 200 ppm [5] | pest or weed control at 200 ppm [7]

Cc1cc(CF)c2c(n1)/C(=N/OCCCO/N=C1\CCCc3c(CF)cc(C)nc31)CCC2 [P.48]
≥ 80%: pest or weed control at 200 ppm [2] | pest or weed control at 200 ppm [3] | inhibition at 200 ppm [1] | pest or weed control at 200 ppm [4] | pest or weed control at 200 ppm [5] | inhibition at 200 ppm [6] | pest or weed control at 200 ppm [7] | pest or weed control at 200 ppm [10]

CC(C)(CO/N=C1\CCCc2cc3c(nc21)CCCC3)CO/N=C1\CCCc2cc3c(nc21)CCCC3 [P.50]
≥ 80%: pest or weed control at 200 ppm [2] | pest or weed control at 200 ppm [3] | inhibition at 200 ppm [1] | pest or weed control at 200 ppm [4] | inhibition at 200 ppm [9]
